Measured values: ChEMBL document CHEMBL1201862, “PubChem BioAssay data set” (2004)
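Five compound concentrations were applied to cells in 96-well plates for 48 hours; endpoints were derived by simple linear interpolation of the resulting dose-response curve. GI50 is the concentration that inhibits growth by half.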 Activity calls are given as the source filed them. Cut-off read from the data, not from the text of the source: active = GI50 up to about 1.1 µM and inactive = higher.

Assays:
Assay in all cases: NCI-60 cell line screen, 48 h
786-0 = test system: 786-0
A549 = test system: A549
COLO 205 = test system: COLO 205
HT-29 = test system: HT-29
KM12 = test system: KM12
LOX IMVI = test system: LOX IMVI
NCI-H226 = test system: NCI-H226
NCI-H23 = test system: NCI-H23
NCI-H460 = test system: NCI-H460
OVCAR-8 = test system: OVCAR-8
SF-268 = test system: SF-268
SK-MEL-28 = test system: SK-MEL-28
SK-MEL-5 = test system: SK-MEL-5
SK-OV-3 = test system: SK-OV-3
SNB-75 = test system: SNB-75
TK-10 = test system: TK-10
UACC-257 = test system: UACC-257
RPMI-8226 = test system: RPMI-8226
A498 = test system: A498

Row | Compound | GI50 (786-0) | GI50 (A549) | GI50 (COLO 205) | GI50 (HT-29) | GI50 (KM12) | GI50 (LOX IMVI) | GI50 (NCI-H226) | GI50 (NCI-H23) | GI50 (NCI-H460) | GI50 (OVCAR-8) | GI50 (SF-268) | GI50 (SK-MEL-28) | GI50 (SK-MEL-5) | GI50 (SK-OV-3) | GI50 (SNB-75) | GI50 (TK-10) | GI50 (UACC-257) | GI50 (RPMI-8226) | GI50 (A498)
1 | CCCC(C)NC1=C(NC(C)=O)C(=O)c2ccccc2C1=O (configuration not stated) | > 100 µM (inactive) | > 100 µM (inactive) | > 100 µM (inactive) | > 100 µM (inactive) | > 100 µM (inactive) | > 100 µM (inactive) | > 100 µM (inactive) | > 100 µM (inactive) | > 100 µM (inactive) | > 100 µM (inactive) | > 100 µM (inactive) | > 100 µM (inactive) | 73.8 µM (inactive) | > 100 µM (inactive) | > 100 µM (inactive) | > 100 µM (inactive) | > 100 µM (inactive) |  | 
2 | CCS/C(=N\c1ccccc1)SC | > 100 µM (inactive) | > 100 µM (inactive) | > 100 µM (inactive) | > 100 µM (inactive) | > 100 µM (inactive) | > 100 µM (inactive) | > 100 µM (inactive) | > 100 µM (inactive) | > 100 µM (inactive) | > 100 µM (inactive) | > 100 µM (inactive) | > 100 µM (inactive) | > 100 µM (inactive) | > 100 µM (inactive) | 51.8 µM (inactive) | > 100 µM (inactive) | > 100 µM (inactive) | > 100 µM (inactive) | 
3 | CC(=O)NCc1c(C(N)=O)ncn1Cc1ccccc1 | > 100 µM (inactive) | > 100 µM (inactive) | > 100 µM (inactive) | > 100 µM (inactive) |  | > 100 µM (inactive) |  | > 100 µM (inactive) | > 100 µM (inactive) | > 100 µM (inactive) |  | > 100 µM (inactive) | > 100 µM (inactive) | > 100 µM (inactive) | > 100 µM (inactive) | > 100 µM (inactive) | > 100 µM (inactive) | > 100 µM (inactive) | > 100 µM (inactive)
4 | COc1ccc2c(c1)CC1COc3cc(OC)ccc3C1O2 (configuration not stated) | 38.1 µM (inactive) | > 100 µM (inactive) | > 100 µM (inactive) | 65.3 µM (inactive) | > 100 µM (inactive) | > 100 µM (inactive) | 23 µM (inactive) | > 100 µM (inactive) |  | 71.8 µM (inactive) | 52.5 µM (inactive) |  | 72.3 µM (inactive) | > 100 µM (inactive) |  | > 100 µM (inactive) | > 100 µM (inactive) | > 100 µM (inactive) | > 100 µM (inactive)
5 | C#C[C@@]1(O)CCCC2=CC(=O)C[C@]21C | > 100 µM (inactive) | > 100 µM (inactive) | > 100 µM (inactive) | > 100 µM (inactive) | > 100 µM (inactive) |  | > 100 µM (inactive) | > 100 µM (inactive) | > 100 µM (inactive) | > 100 µM (inactive) | > 100 µM (inactive) | > 100 µM (inactive) | > 100 µM (inactive) | > 100 µM (inactive) |  | > 100 µM (inactive) | > 100 µM (inactive) | > 100 µM (inactive) | 
6 | CC1=C(CO)C(=O)O[C@@H]([C@@H](C)[C@H]2CC[C@H]3[C@@H]4C[C@H]5O[C@]56[C@@H](O)C=CC(=O)[C@]6(C)[C@H]4CC[C@]23C)C1 [WITHAFERIN A] | 0.401 µM (active) | 3.31 µM (inactive) | 0.406 µM (active) | 0.417 µM (active) | 3.72 µM (inactive) |  | 1.3 µM (inactive) | 0.221 µM (active) | 2.91 µM (inactive) | 0.374 µM (active) | 0.352 µM (active) | 0.55 µM (active) | 1.68 µM (inactive) |  | 4.11 µM (inactive) | 0.641 µM (active) | 1.59 µM (inactive) | 0.247 µM (active) | 
7 | CCCN(CCC)C1=Nc2ccccc2-n2cnnc2C1 | > 100 µM (inactive) | > 100 µM (inactive) | > 100 µM (inactive) | > 100 µM (inactive) | > 100 µM (inactive) | > 100 µM (inactive) | > 100 µM (inactive) | > 100 µM (inactive) | > 100 µM (inactive) | > 100 µM (inactive) | > 100 µM (inactive) | > 100 µM (inactive) | > 100 µM (inactive) |  |  | > 100 µM (inactive) |  | > 100 µM (inactive) | 
8 | COC(=O)C[S+]([O-])c1ccccc1 (configuration not stated) | 26.7 µM (inactive) | 26.8 µM (inactive) | 34.3 µM (inactive) | 36.6 µM (inactive) | 28.3 µM (inactive) | 21.8 µM (inactive) |  | 35 µM (inactive) | 59.8 µM (inactive) | 27.5 µM (inactive) | 14 µM (inactive) | 29.8 µM (inactive) | 25.4 µM (inactive) | 60.7 µM (inactive) | > 10 µM (inactive) | 44 µM (inactive) | 60.4 µM (inactive) | 21.9 µM (inactive) | 49.8 µM (inactive)
